# PubChem BioAssay (NCI)
#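 Five concentrations, 48 hours, 96-well plates. TGI is the concentration that stops growth completely.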
# Test system: KM20L2 colon
# Test: NCI tumour cell line growth inhibition, 48 h
row,Structure (SMILES),TGI [µM]
1,COc1cc(CCCOC2OC(COC3OCC(O)C(O)C3O)C(O)C(O)C2O)cc2cc(-c3ccc4c(c3)OCO4)oc12 (stereo not given),> 175
2,c1ccc([P+](Cc2csnn2)(c2ccccc2)c2ccccc2)cc1,> 100
3,CCC1(CC)C(=O)NC(=S)N=C1N,> 100
4,O=C(NN1C(=O)CSC1c1ccc(Cl)c(Cl)c1)c1ccncc1 (stereo not given),> 100
5,CCOC(=O)C(C)NC(=O)N(C)C12CC3CC(CC(C3)C1)C2 (stereo not given),> 500

# Test system: P388 leukemia
# Test: NCI tumour cell line growth inhibition, 48 h
row,Structure (SMILES),TGI [µM]
1,COc1cc(CCCOC2OC(COC3OCC(O)C(O)C3O)C(O)C(O)C2O)cc2cc(-c3ccc4c(c3)OCO4)oc12 (stereo not given),> 175
2,CCOC(=O)C(C)NC(=O)N(C)C12CC3CC(CC(C3)C1)C2 (stereo not given),231

# Test system: SN12K1 renal
# Test: NCI tumour cell line growth inhibition, 48 h
row,Structure (SMILES),TGI [µM]
1,COc1cc(CCCOC2OC(COC3OCC(O)C(O)C3O)C(O)C(O)C2O)cc2cc(-c3ccc4c(c3)OCO4)oc12 (stereo not given),> 175
2,CCOC(=O)C(C)NC(=O)N(C)C12CC3CC(CC(C3)C1)C2 (stereo not given),> 500

# Test system: HOP-18 NSCLC
# Test: NCI tumour cell line growth inhibition, 48 h
row,Structure (SMILES),TGI [µM]
1,c1ccc([P+](Cc2csnn2)(c2ccccc2)c2ccccc2)cc1,> 100
2,CCC1(CC)C(=O)NC(=S)N=C1N,> 100
3,O=c1cc(-c2ccccc2F)[nH]c2cc3c(cc12)OCO3,61.1
4,CCOC(=O)C(C)NC(=O)N(C)C12CC3CC(CC(C3)C1)C2 (stereo not given),> 500

# Test system: P388/ADR leukemia
# Test: NCI tumour cell line growth inhibition, 48 h
row,Structure (SMILES),TGI [µM]
1,COc1cc(CCCOC2OC(COC3OCC(O)C(O)C3O)C(O)C(O)C2O)cc2cc(-c3ccc4c(c3)OCO4)oc12 (stereo not given),> 175
2,CCOC(=O)C(C)NC(=O)N(C)C12CC3CC(CC(C3)C1)C2 (stereo not given),> 409

# Test system: RXF-631 renal
# Test: NCI tumour cell line growth inhibition, 48 h
row,Structure (SMILES),TGI [µM]
1,CCC1(CC)C(=O)NC(=S)N=C1N,> 100
2,O=C(NN1C(=O)CSC1c1ccc(Cl)c(Cl)c1)c1ccncc1 (stereo not given),> 100

# Test system: DMS 114 small cell lung
# Test: NCI tumour cell line growth inhibition, 48 h
row,Structure (SMILES),TGI [µM]
1,CCOC(=O)C(NC(=O)c1ccc(N=NN(C)C)cc1)C(C)C (stereo not given),> 100
2,COc1cc(CCCOC2OC(COC3OCC(O)C(O)C3O)C(O)C(O)C2O)cc2cc(-c3ccc4c(c3)OCO4)oc12 (stereo not given),> 175
3,c1ccc([P+](Cc2csnn2)(c2ccccc2)c2ccccc2)cc1,> 100
4,CCC1(CC)C(=O)NC(=S)N=C1N,> 100
5,O=C(NN1C(=O)CSC1c1ccc(Cl)c(Cl)c1)c1ccncc1 (stereo not given),> 100
6,O=c1cc(-c2ccccc2F)[nH]c2cc3c(cc12)OCO3,51.7
7,CCOC(=O)C(C)NC(=O)N(C)C12CC3CC(CC(C3)C1)C2 (stereo not given),312
8,O=c1c2cc3c(=O)n(CCc4ccccc4CO)c(=O)c3cc2c(=O)n1CCc1ccccc1CO,> 100
